According to PubChem BioAssay (NCI):
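Following 48 hours of exposure in 96-well plates, responses at five concentrations were used to interpolate endpoints linearly. TGI: concentration producing complete growth inhibition.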

Columns and labels:
Assay in all cases: growth of human tumour cells (NCI), 48 h
COLO 205 colon = system: COLO 205 colon
SK-OV-3 ovarian = system: SK-OV-3 ovarian
HL-60(TB) leukemia = system: HL-60(TB) leukemia
M14 melanoma = system: M14 melanoma
OVCAR-3 ovarian = system: OVCAR-3 ovarian
DU-145 prostate = system: DU-145 prostate
OVCAR-4 ovarian = system: OVCAR-4 ovarian
SN12C renal = system: SN12C renal
786-0 renal = system: 786-0 renal
SK-MEL-5 melanoma = system: SK-MEL-5 melanoma
SNB-19 CNS = system: SNB-19 CNS
ACHN renal = system: ACHN renal
CAKI-1 renal = system: CAKI-1 renal
LXFL 529 NSCLC = system: LXFL 529 NSCLC
MALME-3M melanoma = system: MALME-3M melanoma
SF-539 CNS = system: SF-539 CNS
RXF-631 renal = system: RXF-631 renal
PC-3 prostate = system: PC-3 prostate
UACC-62 melanoma = system: UACC-62 melanoma
CCRF-CEM leukemia = system: CCRF-CEM leukemia
OVCAR-8 ovarian = system: OVCAR-8 ovarian
SW-620 colon = system: SW-620 colon
UACC-257 melanoma = system: UACC-257 melanoma
HOP-62 NSCLC = system: HOP-62 NSCLC
LOX IMVI melanoma = system: LOX IMVI melanoma
DMS 114 small cell lung = system: DMS 114 small cell lung
HOP-92 NSCLC = system: HOP-92 NSCLC
KM20L2 colon = system: KM20L2 colon
SF-268 CNS = system: SF-268 CNS
HCT-15 colon = system: HCT-15 colon
HS 578T breast = system: HS 578T breast
SNB-78 CNS = system: SNB-78 CNS
K-562 leukemia = system: K-562 leukemia
NCI-H23 lung = system: NCI-H23 lung
TK-10 renal = system: TK-10 renal
SK-MEL-28 melanoma = system: SK-MEL-28 melanoma
UO-31 renal = system: UO-31 renal
NCI-H226 lung = system: NCI-H226 lung
MDA-MB-435 = system: MDA-MB-435
NCI-H460 lung = system: NCI-H460 lung
MDA-N = system: MDA-N
T-47D breast = system: T-47D breast
OVCAR-5 ovarian = system: OVCAR-5 ovarian
SK-MEL-2 melanoma = system: SK-MEL-2 melanoma
RPMI-8226 leukemia = system: RPMI-8226 leukemia
EKVX NSCLC = system: EKVX NSCLC
IGROV1 ovarian = system: IGROV1 ovarian
SNB-75 CNS = system: SNB-75 CNS
MOLT-4 leukemia = system: MOLT-4 leukemia
XF 498 CNS = system: XF 498 CNS
MCF7 breast = system: MCF7 breast
SR leukemia = system: SR leukemia
U251 CNS = system: U251 CNS
HCT-116 colon = system: HCT-116 colon
DMS 273 small cell lung = system: DMS 273 small cell lung
NCI-H522 lung = system: NCI-H522 lung
MDA-MB-231 breast = system: MDA-MB-231 breast
SF-295 CNS = system: SF-295 CNS
NCI/ADR-RES ovarian = system: NCI/ADR-RES ovarian
BT-549 breast = system: BT-549 breast
RXF 393 renal = system: RXF 393 renal
KM12 colon = system: KM12 colon
A549 NSCLC = system: A549 NSCLC
HCC-2998 colon = system: HCC-2998 colon
A498 renal = system: A498 renal
HT29 colon = system: HT29 colon
DLD-1 colon = system: DLD-1 colon
M19-MEL melanoma = system: M19-MEL melanoma

For `CCN(CC)CCn1c2ccccc2c(=O)c2c(O)ccc(O)c21`, the TGI (COLO 205 colon) was 45.1 µM, the TGI (SK-OV-3 ovarian) was > 81 µM and the TGI (HL-60(TB) leukemia) was 46.8 µM. For the same molecule, the TGI (M14 melanoma) was 63.6 µM, the TGI (OVCAR-3 ovarian) was 47.6 µM and the TGI (DU-145 prostate) was > 100 µM. For the same molecule, the TGI (OVCAR-4 ovarian) was 34.5 µM, the TGI (SN12C renal) was 45.6 µM and the TGI (786-0 renal) was 53.8 µM. For the same molecule, the TGI (SK-MEL-5 melanoma) was 45.5 µM, the TGI (SNB-19 CNS) was > 74.8 µM and the TGI (ACHN renal) was 57.8 µM. It also gave a TGI (CAKI-1 renal) of 61.5 µM, a TGI (LXFL 529 NSCLC) of 41.7 µM and a TGI (MALME-3M melanoma) of 49.3 µM. For the same molecule, the TGI (SF-539 CNS) was 50.3 µM, the TGI (RXF-631 renal) was > 66.8 µM and the TGI (PC-3 prostate) was > 56.1 µM. The TGI (UACC-62 melanoma) was 52.8 µM, the TGI (CCRF-CEM leukemia) was > 90.2 µM and the TGI (OVCAR-8 ovarian) was 48.2 µM. The TGI (SW-620 colon) was 31.5 µM, the TGI (UACC-257 melanoma) was 60.6 µM and the TGI (HOP-62 NSCLC) was 86.5 µM. The TGI (LOX IMVI melanoma) was 36.3 µM, the TGI (DMS 114 small cell lung) was 41 µM and the TGI (HOP-92 NSCLC) was 39.9 µM. For the same molecule, the TGI (KM20L2 colon) was > 100 µM, the TGI (SF-268 CNS) was 52.7 µM and the TGI (HCT-15 colon) was > 58.5 µM. For the same molecule, the TGI (HS 578T breast) was 53.5 µM, the TGI (SNB-78 CNS) was > 60.2 µM and the TGI (K-562 leukemia) was 68.5 µM. The TGI (NCI-H23 lung) was 62.2 µM, the TGI (TK-10 renal) was 49.2 µM and the TGI (SK-MEL-28 melanoma) was 48.6 µM. The TGI (UO-31 renal) was 63.8 µM, the TGI (NCI-H226 lung) was > 56.2 µM and the TGI (MDA-MB-435) was 33.4 µM. For the same molecule, the TGI (NCI-H460 lung) was > 71.9 µM, the TGI (MDA-N) was 34.4 µM and the TGI (T-47D breast) was 34.3 µM. For the same molecule, the TGI (OVCAR-5 ovarian) was > 78.5 µM, the TGI (SK-MEL-2 melanoma) was 50.4 µM and the TGI (RPMI-8226 leukemia) was 85.4 µM. The TGI (EKVX NSCLC) was > 46.4 µM, the TGI (IGROV1 ovarian) was 66.3 µM and the TGI (SNB-75 CNS) was 49.5 µM. The TGI (MOLT-4 leukemia) was 69.3 µM, the TGI (XF 498 CNS) was 44.2 µM and the TGI (MCF7 breast) was 40.1 µM. For the same molecule, the TGI (SR leukemia) was 26.2 µM, the TGI (U251 CNS) was 74.1 µM and the TGI (HCT-116 colon) was 58.6 µM. For the same molecule, the TGI (DMS 273 small cell lung) was > 100 µM, the TGI (NCI-H522 lung) was 35.9 µM and the TGI (MDA-MB-231 breast) was 29.9 µM. The TGI (SF-295 CNS) was 56.1 µM, the TGI (NCI/ADR-RES ovarian) was 44 µM and the TGI (BT-549 breast) was 44.7 µM. The TGI (RXF 393 renal) was 35.9 µM, the TGI (KM12 colon) was > 74.8 µM and the TGI (A549 NSCLC) was > 100 µM. The TGI (HCC-2998 colon) was > 57.7 µM, the TGI (A498 renal) was > 100 µM and the TGI (HT29 colon) was 59.8 µM.

`CCCCCCCCCCCCCCCCOCC(CP(=O)([O-])OCC[n+]1ccccc1)OC` (stereo not drawn) gave a TGI (COLO 205 colon) of 20.5 µM, a TGI (SK-OV-3 ovarian) of 32.7 µM and a TGI (HL-60(TB) leukemia) of 5.19 µM. The TGI (M14 melanoma) was 17.9 µM, the TGI (OVCAR-3 ovarian) was 27.1 µM and the TGI (OVCAR-4 ovarian) was 24.1 µM. It also gave a TGI (SN12C renal) of 24.9 µM, a TGI (786-0 renal) of 28.7 µM and a TGI (SK-MEL-5 melanoma) of 27.7 µM. The TGI (SNB-19 CNS) was 21.6 µM, the TGI (CAKI-1 renal) was 22.2 µM and the TGI (LXFL 529 NSCLC) was 23.5 µM. The TGI (DLD-1 colon) was 11.1 µM, the TGI (MALME-3M melanoma) was 32.8 µM and the TGI (SF-539 CNS) was 28.4 µM. The TGI (RXF-631 renal) was 28.9 µM, the TGI (UACC-62 melanoma) was 24.5 µM and the TGI (CCRF-CEM leukemia) was 25.6 µM. It also gave a TGI (OVCAR-8 ovarian) of 30 µM, a TGI (SW-620 colon) of 31.6 µM and a TGI (UACC-257 melanoma) of 28.8 µM. For the same molecule, the TGI (HOP-62 NSCLC) was 25.2 µM, the TGI (DMS 114 small cell lung) was 26.5 µM and the TGI (HOP-92 NSCLC) was 5.97 µM. The TGI (SF-268 CNS) was 24.9 µM, the TGI (SNB-78 CNS) was 31.1 µM and the TGI (K-562 leukemia) was 32.8 µM. It also gave a TGI (NCI-H23 lung) of 14.8 µM, a TGI (TK-10 renal) of 8.09 µM and a TGI (SK-MEL-28 melanoma) of 32.2 µM. The TGI (UO-31 renal) was 21.2 µM, the TGI (NCI-H226 lung) was 15.5 µM and the TGI (SK-MEL-2 melanoma) was 31.9 µM. For the same molecule, the TGI (RPMI-8226 leukemia) was 11.8 µM, the TGI (EKVX NSCLC) was 34.7 µM and the TGI (M19-MEL melanoma) was 25.2 µM. For the same molecule, the TGI (IGROV1 ovarian) was 17.6 µM, the TGI (SNB-75 CNS) was 22.3 µM and the TGI (MOLT-4 leukemia) was 18.9 µM. For the same molecule, the TGI (XF 498 CNS) was 24.7 µM, the TGI (SR leukemia) was 15.3 µM and the TGI (HCT-116 colon) was 22.1 µM. For the same molecule, the TGI (DMS 273 small cell lung) was 5.63 µM, the TGI (NCI-H522 lung) was 39.5 µM and the TGI (SF-295 CNS) was 15.4 µM. It also gave a TGI (KM12 colon) of 5.62 µM, a TGI (A549 NSCLC) of 24.1 µM and a TGI (HCC-2998 colon) of 7.4 µM. It also gave a TGI (A498 renal) of 25.5 µM and a TGI (HT29 colon) of 15.9 µM.

In the case of `CC(=O)C(CN(Cc1ccccc1)Cc1ccccc1)C(c1ccccc1)c1c(O)c2ccccc2oc1=O` (stereo not drawn), the TGI (SK-OV-3 ovarian) is reported as > 100 µM, the TGI (HL-60(TB) leukemia) is reported as > 100 µM and the TGI (M14 melanoma) is reported as > 100 µM. The TGI (OVCAR-3 ovarian) was > 100 µM, the TGI (OVCAR-4 ovarian) was > 100 µM and the TGI (SN12C renal) was > 100 µM. The TGI (786-0 renal) was > 100 µM, the TGI (SK-MEL-5 melanoma) was > 100 µM and the TGI (SNB-19 CNS) was > 100 µM. For the same molecule, the TGI (ACHN renal) was > 100 µM, the TGI (CAKI-1 renal) was > 100 µM and the TGI (LXFL 529 NSCLC) was > 100 µM. For the same molecule, the TGI (DLD-1 colon) was > 100 µM, the TGI (MALME-3M melanoma) was > 100 µM and the TGI (SF-539 CNS) was > 100 µM. For the same molecule, the TGI (RXF-631 renal) was > 100 µM, the TGI (UACC-62 melanoma) was > 100 µM and the TGI (CCRF-CEM leukemia) was > 100 µM. For the same molecule, the TGI (OVCAR-8 ovarian) was > 100 µM, the TGI (SW-620 colon) was > 100 µM and the TGI (UACC-257 melanoma) was > 100 µM. The TGI (HOP-62 NSCLC) was > 100 µM, the TGI (LOX IMVI melanoma) was > 100 µM and the TGI (HOP-92 NSCLC) was > 100 µM. For the same molecule, the TGI (KM20L2 colon) was > 100 µM, the TGI (SF-268 CNS) was > 100 µM and the TGI (HCT-15 colon) was > 100 µM. For the same molecule, the TGI (SNB-78 CNS) was > 100 µM, the TGI (K-562 leukemia) was > 100 µM and the TGI (NCI-H23 lung) was > 100 µM. The TGI (TK-10 renal) was > 100 µM, the TGI (UO-31 renal) was > 100 µM and the TGI (NCI-H226 lung) was > 100 µM. For the same molecule, the TGI (NCI-H460 lung) was > 100 µM, the TGI (OVCAR-5 ovarian) was > 100 µM and the TGI (SK-MEL-2 melanoma) was > 100 µM. For the same molecule, the TGI (RPMI-8226 leukemia) was > 100 µM, the TGI (EKVX NSCLC) was > 100 µM and the TGI (M19-MEL melanoma) was > 100 µM. For the same molecule, the TGI (IGROV1 ovarian) was > 100 µM, the TGI (SNB-75 CNS) was > 100 µM and the TGI (XF 498 CNS) was > 100 µM. The TGI (SR leukemia) was > 100 µM, the TGI (U251 CNS) was > 100 µM and the TGI (HCT-116 colon) was > 100 µM. For the same molecule, the TGI (NCI-H522 lung) was > 100 µM, the TGI (SF-295 CNS) was > 100 µM and the TGI (RXF 393 renal) was > 100 µM. For the same molecule, the TGI (KM12 colon) was > 100 µM, the TGI (A549 NSCLC) was > 100 µM and the TGI (A498 renal) was > 100 µM. The TGI (HT29 colon) was > 100 µM.
